# Test results reported in patent publication US12306171B2, “Method for detecting indicator of immune-related disease” (MANDOM CORPORATION, priority 2018, dated 2025).
# Tests used:
# [1] = tested on: primary cilium of immune cell (peripheral blood mononuclear cells from an asthmatic patient); assay: Formation rate of primary cilium in immune cell after culture in steroid-containing medium; type: cell-based, human; settings: 10 μM steroid, 37° C., 24 hours; nonadherent cells from asthmatic patient PBMC; FIG. 11
# Procedure: Using 10 mL of peripheral blood collected from an asthmatic patient and 15 mL of a human lymphocyte-separation medium (manufactured by GE Healthcare, trade name: Ficoll-Paque PLUS), peripheral blood mononuclear cells were separated from the peripheral blood, according to a density gradient centrifugation method. Some of the separated peripheral blood mononuclear cells were fixed with 4 v/v % PFA-containing PBS solution. The fixed cells were blocked and permeabilized by incubating the cells in a blocking/permeabilizing agent, to give a sample containing uncultured cells.
# Some of the separated peripheral blood mononuclear cells were cultured in a steroid-containing medium (RPMI1640 medium containing 10 μM hydrocortisone or 10 μM dexamethasone, 0.1 v/v % DMSO and 10 v/v % FBS) at 37° C. for 24 hours. Then, nonadherent cells suspended in each medium were collected. Immediately after collection, each of the collected cells was fixed with 4 v/v % PFA-containing PBS solution. […]
# Next, the total number of immune cells and the number of primary cilia in an immune cell were obtained by using observations of cells contained in each sample. Then, the formation rate of a primary cilium in an immune cell was calculated in accordance with the formula (Ic): [Formation rate of primary cilium in immune cell]=[(Number of primary cilia in immune cell)/(Total number of immune cells)]×100 (Ic). […]
# [2] = tested on: adhesive cell in peripheral blood mononuclear cells collected from an asthmatic patient; assay: Morphology and adhesive cells of peripheral blood mononuclear cells from an asthmatic patient after culture in steroid-containing medium; type: cell-based, human; settings: 10 μM steroid, 0.1 v/v % DMSO, 10 v/v % FBS RPMI1640, 37° C., 24 hours; asthmatic patient PBMC; FIG. 10
# Procedure: Using 10 mL of peripheral blood collected from an asthmatic patient and 15 mL of a human lymphocyte-separation medium (manufactured by GE Healthcare, trade name: Ficoll-Paque PLUS), peripheral blood mononuclear cells were separated from the peripheral blood, according to a density gradient centrifugation method. Some of the separated peripheral blood mononuclear cells were cultured in a steroid-containing medium (RPMI1640 medium containing 10 μM hydrocortisone or 10 μM dexamethasone, 0.1 v/v % DMSO and 10 v/v % FBS) or a control medium (RPMI1640 medium containing 0.1 v/v % DMSO and 10 v/v % FBS) in a culture vessel at 37° C. for 24 hours. The morphology and state of the obtained cell were observed by an inverted phase contrast microscope (manufactured by Leica Microsystems, trade name: DM IL LED). […]
structure (smiles),measurement,setting,value
C[C@]12CCC(=O)C=C1CC[C@@H]1[C@@H]2[C@@H](O)C[C@@]2(C)[C@H]1CC[C@]2(O)C(=O)CO [hydrocortisone],"formation rate of a primary cilium of the immune cell in the nonadherent cell, versus control medium",[1],significantly lower
same,"presence of adhesive cell after culture (morphology, phase contrast microscope)",[2],the adhesive cell disappears
